Results reported in patent US20260083125A1, “METHODS FOR MANAGING HERBICIDE VAPORIZATION” (AgQuam R&D, LLC, priority 2016, published 2026).

Assays:
[1] = Lecithin addition to sulfuric acid, urea sulfate and AQ 216 (lecithin stability); assay type: physicochemical; conditions: for Notes (result of lecithin addition): on addition
Excerpt: Lecithin is known to be unstable in a sulfuric acid environment. […] For each reaction with urea sulfate and AQ 216, the urea sulfate was mixed thoroughly or AQ 216 was mixed thoroughly, before the addition of the lecithin composition.

[2] = tested on: Sunflower; experiment: Greenhouse study for weed control, sunflower; assay type: in vivo; conditions: Glyphosate 0.375 lb/acre; AMS 17 lb/100 gal; NIS, AQ 284, AQ 268 […] v/v; INTERLOCK 4 fl oz/acre
Experimental: (§1) A greenhouse study was conducted to test the efficacy of the AQ 284 combination water conditioning adjuvant and drift reduction composition compared to the commercial standard (INTERLOCK). Greenhouse research was conducted with individual plants growing in 3×3×3 inch pots. Greenhouse treatments were applied with a track sprayer using an 8002 E single nozzle applying 20 gpa.

[3] = tested on: Wheat; experiment: Greenhouse study for weed control, wheat; assay type: in vivo; conditions: Glyphosate 0.375 lb/acre; AMS 17 lb/100 gal; NIS, AQ 284, AQ 268 […] v/v; INTERLOCK 4 fl oz/acre
Experimental: as §1

[4] = tested on: Corn; experiment: Greenhouse study for weed control, corn; assay type: in vivo; conditions: Glyphosate 0.375 lb/acre; AMS 17 lb/100 gal; NIS, AQ 284, AQ 268 […] v/v; INTERLOCK 4 fl oz/acre
Experimental: as §1

[5] = tested on: Corn, Sunflower, Wheat; experiment: Greenhouse study for weed control, average of corn, sunflower and wheat; assay type: in vivo; conditions: Glyphosate 0.375 lb/acre; AMS 17 lb/100 gal; NIS, AQ 284, AQ 268 […] v/v; INTERLOCK 4 fl oz/acre
Experimental: as §1

[6] = lecithin composition AIRLINK 50 mL
[7] = lecithin composition LI 700 50 mL
[8] = lecithin composition LIBERATE 50 mL

## O=S(=O)(O)O [Sulfuric Acid]
[1]; 50 mL of each of the lecithin compositions, equivalent amount of sulfuric acid (3 mL)
  reaction with lecithin compositions: forming a precipitate
[1]; [6]
  Time 1 hour: More precipitate
  Time 12 Hours: More precipitate
[1]; lecithin composition AIRLINK 50 mL, 3 mL sulfuric acid or 6 mL urea sulfate / AQ 216
  Notes (result of lecithin addition): Dark Precipitate
[1]; [7]
  Time 1 hour: More precipitate
  Time 12 Hours: More precipitate
  Notes (result of lecithin addition): Dark Precipitate
[1]; [8]
  Time 1 hour: More precipitate
  Time 12 Hours: More precipitate
  Notes (result of lecithin addition): Dark Precipitate

## O=C(O)CNCP(=O)(O)O [Glyphosate, N-phosphonomethylglycine]
[2]
  Sunflower % Control 18 Days After Application: 15.0%
[3]
  Wheat % Control 18 Days After Application: 15.0%
[4]
  Corn % Control 18 Days After Application: 10.0%
[5]
  Average % Control 18 Days After Application: 13.3%
